This is an account of results in publication PMC7022278, “Alpha-Amylase and Alpha-Glucosidase Enzyme Inhibition and Antioxidant Potential of 3-Oxolupenal and Katononic Acid Isolated from Nuxia oppositifolia” (Biomolecules, 2019).

Test [1] deals with T1, Porcine α-amylase (pancreatic α-amylase) (Sus scrofa, UniProt P00690).
T1 construct: purchased Sigma-Aldrich Co., St Louis, MO, USA
T1 sequence (P00690 16-511): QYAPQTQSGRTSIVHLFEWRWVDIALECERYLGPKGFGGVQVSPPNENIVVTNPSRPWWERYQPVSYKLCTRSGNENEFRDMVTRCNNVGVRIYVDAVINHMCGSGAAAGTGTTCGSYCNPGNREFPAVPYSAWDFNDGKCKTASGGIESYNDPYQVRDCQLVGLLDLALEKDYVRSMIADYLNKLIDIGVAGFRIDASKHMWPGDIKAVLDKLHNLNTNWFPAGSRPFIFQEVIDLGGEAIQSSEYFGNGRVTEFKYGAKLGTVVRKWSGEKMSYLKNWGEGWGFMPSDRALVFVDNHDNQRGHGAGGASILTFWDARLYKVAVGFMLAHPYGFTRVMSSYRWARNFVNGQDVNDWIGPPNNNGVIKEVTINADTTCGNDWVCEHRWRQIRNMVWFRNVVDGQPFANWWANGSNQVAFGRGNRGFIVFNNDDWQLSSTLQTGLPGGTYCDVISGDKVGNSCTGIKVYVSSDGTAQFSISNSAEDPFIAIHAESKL
Put plainly: Inhibition assay for amylase activity (starch/DNS). It counts as biochemical. On the procedure:
The different fractions of the plant and compounds were prepared using 5% dimethyl sulfoxide (DMSO). Fraction/compound (500 µL) of 100 µg/mL concentration (i.e., 50 µg) and 500 µL of 20 mM sodium phosphate buffer (pH 6.8) containing 20 µL of amylase (0.5 mg/mL) were incubated at 25 °C for 10 min. After pre-incubation, 500 µL of 1% starch solution in 0.02 M sodium phosphate buffer (pH 6.9) were added to each tube and incubated for 15 min. The reaction was stopped with 1.0 mL of dinitrosalicyclic acid. The test tubes were then incubated in a boiling water bath for 5 min and cooled to room temperature. The reaction mixture was then diluted after adding 10 mL distilled water, and the absorbance (Abs) was measured at 540 nm. Mean values were obtained from triplicate experiments. The control samples were prepared without any plant extracts/fractions/compounds. The percent inhibition of amylase activity was calculated using the following formula:(1) Inhibition(%)=(AbsControl−AbsCompound/AbsControl)×100 The mean values were obtained from triplicate experiments.

The target of test [2] is α-glucosidase. Put plainly: Inhibition assay for glucosidase activity (pNPG). It counts as biochemical. Conditions: for Inhibition of α-Glucosidase (IC50 value): means of three experiments ± SD; for IC50: molar value in brackets. On the procedure: Glucosidase inhibition assay was carried out by following the method of Elya et al. (2008). The different fractions of the plant and compounds were prepared using 5% dimethyl sulfoxide (DMSO). […] Next, 50 μL of 5 mM p-nitrophenyl-α-D-glucopyranoside (pNPG) were added to the mixture to start the reaction. The reaction mixture was incubated at 37 °C for 60 min and stopped by adding 2.5 mL of 0.1 M Na2CO3. […] The mean values were obtained from triplicate experiments. The inhibition of glucosidase activity was calculated as percentage inhibition using Equation (1).

Test [3] can be described thus: DPPH radical scavenging activity. Conditions: for DPPH Scavenging Activity (IC50 value): means of three experiments ± SD; for IC50: molar value in brackets. On the procedure: The DPPH radical scavenging method measured the antioxidant activity following the method of Braca et al. (2001) with slight modification. The crude extract, fractions, and compounds at 100 µg/mL concentrations were added to 3 mL of 0.004% DPPH solution. In the control sample, methanol was added in place of test extract/fractions/compounds. The DPPH is violet in color at room temperature and the color changes to yellow by either the process of hydrogen or electron donation by antioxidants. Absorbance was measured at 520 nm after 30 min incubation. The percent inhibition was calculated using Equation (1).

The nature of test [4]: ABTS radical cation scavenging activity. Conditions: for ABTS Scavenging Activity (IC50 value): means of three experiments ± SD; for IC50: molar value in brackets. On the procedure:
The ABTS radical scavenging activity of the samples was measured using the method of Re et al. (1999) with slight modification. ABTS solution in water (7 mM concentration) and an aqueous solution of potassium persulfate (2.45 mM) were prepared. The two solutions were mixed in the volume ratio 1:1 and stored in the dark 6 h at room temperature to produce the ABTS radical. The blue chromophore, which has a characteristic absorbance at 734 nm, was generated by reacting equal amount of ABTS and potassium persulfate solution. The ABTS stock solution was diluted with ethanol to an absorbance of 0.70 ± 0.02 at 734 nm and equilibrated at 30 °C. The crude extract, different fractions and isolated compounds at 100 µg/mL concentrations were mixed with 2.9 mL of diluted ABTS radical cation solution. The reaction was incubated at 30 °C for 20 min, and the absorbance at 734 nm was measured. The affinity of the test sample to quench the ABTS free radical was evaluated using Equation (1).

The next test has as its target T2, α-amylase (Sus scrofa, UniProt P00690).
T2 construct: purchased Sigma-Aldrich Co., St Louis, MO, USA
T2 sequence (P00690 16-511): T1 sequence (P00690 16-511)
Description: Fluorescence quenching-based binding study, α-amylase. Conditions: 298 K; for Number of Binding Sites n: pH 6.8. On the procedure: (§1) Proteins were excited at 295 nm and the fluorescence spectra were recorded in the 300–450 nm range. The excitation and emission slit widths were set at 5 nm each. The concentration of proteins was fixed at 2 µM while the concentration of quenchers was varied. The inner filter effect contributed by quenchers was corrected using the following relation. (2) Fcorr=Fobs×e^(Aex+Aem)/2 where Fcorr is the corrected fluorescence intensity, Fobs is the observed fluorescence intensity, Aex is the absorbance at the excitation wavelength, and Aem is the absorbance at the emission wavelength.
(§2) Observing quenching in the fluorescence intensity of a protein in the presence of a ligand is a powerful tool in determining the binding parameters such as binding affinity and Gibb’s free energy of stabilization. Here, we have followed quenching in the fluorescence intensity of α-amylase and α-glucosidase in the presence of 3-oxolupenal and katononic acid at 298 K (Figure 4 and Figure 5). […] The binding parameters for the interaction were deduced using the following Stern–Volmer and modified Stern–Volmer equations. (3) Fo/F=1+KSV[Q]=1+kqτo[Q] (4) log(Fo−F/F)=logKa+nlog[Q] where, Fo and F are the fluorescence intensities of enzymes (α-amylase and α-glucosidase) in the absence and presence of ligands (3-oxolupenal and katononic acid); KSV is the Stern–Volmer constant; [Q] is the molar concentration of ligands (3-oxolupenal and katononic acid); kq is the bimolecular quenching rate constant; τo is the lifetime of enzymes’ fluorescence in the absence of ligands (=5.71 × 10^−9 s); Ka is the binding constant; n is the number of binding sites on the enzyme.

The test system of test [5] is α-glucosidase. Put plainly: Fluorescence quenching-based binding study, α-glucosidase. Conditions: 298 K. On the procedure: as §1, §2
The mark [6] stands for this setting: means of three experiments ± SD.
Where [7] appears, read: pH 6.8, listed as Katononic Acid.
The mark [8] stands for this setting: pH 6.8, listed as katononic acid.

Where “and” joins values, the source holds several entries; their conditions need not be identical. Equal entries are not always repeated.

The IC50 is the concentration that gives 50% inhibition. A lower IC50 goes with greater potency. For `C=C(C=O)[C@@H]1CC[C@]2(C)CC[C@]3(C)[C@H](CC[C@@H]4[C@@]5(C)CCC(=O)C(C)(C)[C@@H]5CC[C@]43C)[C@@H]12` [3-oxolupenal], the IC50 in test [1] (setting [6]) is 105 µM; in test [1] (molar value in brackets), 102 µM and 105 µM; against α-glucosidase [2], 142 µM; in test [3], 188 µM; in test [4], 192 µM. Moreover, the “Inhibition of α-Glucosidase (IC50 value)” value at α-glucosidase [2] came out at 62.3 ± 2.4 µg/mL. The “DPPH Scavenging Activity (IC50 value)” value in test [3] turned out to be 82.7 ± 6.7 µg/mL. Also, the “ABTS Scavenging Activity (IC50 value)” value in test [4] turned out to be 84.2 ± 5.1 µg/mL. Moreover, the “Number of Binding Sites n” value at α-amylase is listed as 1.0865.
For the molecule `Cc1cc(C(C)(C)C)c(O)c(C(C)(C)C)c1` [BHT, butylated hydroxytoluene, reference compound], in test [3], the “DPPH Scavenging Activity (IC50 value)” value was determined as 16.6 ± 6.2 µg/mL and the half-maximal inhibitory concentration (IC50) was 75.3 µM. In test [4], the “ABTS Scavenging Activity (IC50 value)” value is reported as 28.0 ± 1.9 µg/mL and the IC50 was 127 µM.
Turning to `CC1(C)C(=O)CC[C@]2(C)[C@H]3CC=C4[C@@H]5C[C@](C)(C(=O)O)CC[C@]5(C)CC[C@@]4(C)[C@]3(C)CC[C@@H]12` [Katononic acid, katononic acid], the IC50 in test [1] (setting [6]) was 115 µM; in test [1] (molar value in brackets), 119 µM and 115 µM; against α-glucosidase [2] it was 195 µM; in test [3], 192 µM; in test [4] it was 182 µM. On α-glucosidase [2], the “Inhibition of α-Glucosidase (IC50 value)” value is given as 88.6 ± 6.2 µg/mL. The “DPPH Scavenging Activity (IC50 value)” value in test [3] was 87.5 ± 5.4 µg/mL. For the same molecule, the “ABTS Scavenging Activity (IC50 value)” value in test [4] is 82.7 ± 4.7 µg/mL. Besides, the “Number of Binding Sites n” value on α-amylase came to 0.7646. In addition, the “Bimolecular Quenching Rate Constant (kq)” value at α-amylase (setting [7]) is 2.77e+13 M⁻¹ s⁻¹; on α-amylase (setting [8]), ~10^13 M^−1 s^−1; with α-glucosidase [5] (setting [7]), 3.59e+13 M⁻¹ s⁻¹; in the test on α-glucosidase [5] (setting [8]) it was ~10^13 M^−1 s^−1. Further, the “Stern–Volmer Constant (KSV)” value on α-amylase (setting [7]) is 158000 M⁻¹; on α-amylase (setting [8]) it was ~10^5 M^−1; in the test on α-glucosidase [5] (setting [7]) it was 205000 M⁻¹; with α-glucosidase [5] (setting [8]) it was ~10^5 M^−1.
